Data: patent publication US4318916A, “Antibiotic PS-5 and derivatives having β-lactamase inhibitory activity and production thereof” (Sanraku-Ocean Co., Ltd., priority 1977, dated 1982)
≈ marks a conversion by molar mass, not a printed value. Where a name gives a salt, the structure may show the parent alone.

Key:
[1] = test system: Staphylococcus aureus Smith; assay: MIC by broth dilution (Table 13); assay type: cell-based; conditions: 20 h; Staphylococcus aureus Smith; read-out: MIC
Method: (§1) The MIC (minimum inhibitory concentration) values of the compound were determined on various pathogenic microorganisms including several resistant strains, utilizing the broth dilution method in BRAIN HEART INFUSION BROTH `Eiken` (EIKEN CHEMICAL CO., LTD.).
(§2) The results were read after incubation at 35° C. for 20 hours. The minimum inhibitory concentration (MIC) values means the lowest concentration unit of the tritylation product of the antibiotic PS-5 was no growth of the corresponding microorganism was observed under the above described conditions. As the control antibiotics,the solutions of ampicillin and cephaloridine were prepared in BRAIN HEART INFUSION BROTH `Eiken` (pH 7.0) at a concentration of 100 μg/ml and treated same as the test compound of the present invention.

[2] = test system: Escherichia coli K12; assay: MIC by broth dilution (Table 13); assay type: cell-based; conditions: 20 h
Method: as §1, §2

[3] = test system: Alcaligenes faecalis B-326; assay: MIC by broth dilution (Table 13); assay type: cell-based; conditions: Alcaligenes faecalis, B326, 20 h
Method: as §1, §2

[4] = test system: Diplococcus pneumoniae Type III; assay: MIC by broth dilution (Table 13); assay type: cell-based; conditions: Streptococcus pneumoniae, 20 h; Diplococcus pneumoniae Type III; read-out: MIC
Method: as §1, §2

[5] = test system: Klebsiella pneumoniae K-2; assay: MIC by broth dilution (Table 13); assay type: cell-based; conditions: K2, 20 h; Klebsiella pneumoniae K-2; read-out: MIC
Method: as §1, §2

[6] = test system: Serratia marcescens S-18; assay: MIC by broth dilution (Table 13); assay type: cell-based; conditions: S18, 20 h
Method: as §1, §2

[7] = test system: Enterobacter aerogenes E-19; assay: MIC by broth dilution (Table 13); assay type: cell-based; conditions: Klebsiella aerogenes, E19, 20 h
Method: as §1, §2

[8] = test system: Proteus mirabilis P-6; assay: MIC by broth dilution (Table 13); assay type: cell-based; conditions: Proteus mirabilis, P6, 20 h
Method: as §1, §2

[9] = test system: Proteus rettgeri P-7; assay: MIC by broth dilution (Table 13); assay type: cell-based; conditions: Providencia rettgeri, P7, 20 h; Proteus rettgeri P-7; read-out: MIC
Method: as §1, §2

[10] = test system: Proteus vulgaris P-5; assay: MIC by broth dilution (Table 13); assay type: cell-based; conditions: P5, 20 h; Proteus vulgaris P-5; read-out: MIC
Method: as §1, §2

[11] = test system: Enterobacter cloacae E-16; assay: MIC by broth dilution (Table 13); assay type: cell-based; conditions: E16, 20 h
Method: as §1, §2

[12] = test system: Staphylococcus aureus FDA 209p; assay: MIC by broth dilution (Table 13); assay type: cell-based; conditions: FDA209P, 20 h; Staphylococcus aureus FDA 209p; read-out: MIC
Method: as §1, §2

[13] = test system: Sarcina lutea S-19; assay: MIC by broth dilution (Table 13); assay type: cell-based; conditions: Micrococcus luteus, S19, 20 h; Sarcina lutea S-19; read-out: MIC
Method: as §1, §2

[14] = test system: Enterobacter sp. E-8; assay: MIC by broth dilution (Table 13); assay type: cell-based; conditions: SP.E8, 20 h; Enterobacter sp. E-8; read-out: MIC
Method: as §1, §2

[15] = test system: Citrobacter freundii E-9; assay: MIC by broth dilution (Table 13); assay type: cell-based; conditions: E9, 20 h; Citrobacter freundii E-9; read-out: MIC
Method: as §1, §2

[16] = test system: Pseudomonas aeruginosa P-1; assay: MIC by broth dilution (Table 13); assay type: cell-based; conditions: P1, 20 h; Pseudomonas aeruginosa P-1; read-out: MIC
Method: as §1, §2

[17] = test system: Streptococcus pyogenes NY-5; assay: MIC by broth dilution (Table 13); assay type: cell-based; conditions: NY5, 20 h; Streptococcus pyogenes NY-5; read-out: MIC
Method: as §1, §2

[18] = test system: Proteus vulgaris P-5; assay: Potentiation disc assay with cephaloridine (Table 10); assay type: cell-based; conditions: Proteus vulgaris P-5; for Inhibition zone With CER: 50 μg/ml cephaloridine in agar
Method: (A) Ten milliliters of molten nutrient agar containing 50 μg/ml of penicillin G or cephaloridine, 0.8% of Kyokuto Nutrient Broth Powder and 1.0% of Difco Bacto-Agar (pH 7.0) were seeded with the beta-lactam-resistant, beta-lactamase-producing microorganisms indicated in Tables 9 and 10, and poured in a 9-cm Petri dish to provide the bio-assay agar plate. On this assay plate, 8-mm pulp discs containing 25 μl each of antibiotic PS-5 solutions at the indicated concentrations were placed and incubated at 35° C. for 18 hours before reading the inhibition zones. The control assay plate was similarly prepared without penicillin G nor cephaloridine. As reference antibiotics, penicillin G, ampicillin, oxacillin and cefazolin were disc-assayed under the same conditions.

[19] = test system: male ddy mice; assay type: in vivo; conditions: 500 mg/kg intraperitoneally
Method: An aqueous solution of the antibiotic PS-5 sodium salt was intraperitoneally administered to male ddy mice (Shizuoka) at the dose of 500 mg/kg.

[20] = test system: Staphylococcus aureus Smith; assay: Therapeutic activity of antibiotic PS-5 sodium salt in infected mice; assay type: in vivo; conditions: sc; male ddy mice infected i.p. with 5×10^5 cells/mouse Staphylococcus aureus Smith; subcutaneously injected soon after infection; read-out: 50% curative dose
Excerpt: The therapeutic activity of the antibiotic PS-5 sodium salt was studied by treating mice intraperitoneally infected with 5×10^5 cells/mouse of Staphylococcus aureus Smith. Soon after the infection, an aqueous solution of the antibiotic PS-5 sodium salt was subcutaneously injected.

[21] = Solubility of antibiotic PS-5; assay type: physicochemical; conditions: sodium salt preparation of Example 9
[22] = test system: Comamonas terrigena B-996; assay: Disc bio-assay of antimicrobial activity, cephaloridine equivalent units; assay type: cell-based; conditions: Comamonas-cephaloridine units per mg of the final purified preparation
Method: The overnight culture of Comamonas terrigena B-996 on a nutrient agar slant was suspended in nutrient broth so as to give an optical cell density of 0.040 at 610 nm.
The seed suspension was added in a 1% amount to a molten agar medium containing 0.8% Kyokuto Nutrient Broth Powder (Kyokuto Pharmaceutical Industries Co.) and 1.0% Bacto-Agar (Difco Laboratories). Seven milliliters of the seeded molten agar medium were distributed in a Petri dish (9 cm in diameter) and solidified). This is defined as a Comamonas assay plate.
An 8 mm pulp disc was usually soaked with a sample solution to be assayed, left on a clean sheet of filter paper for a sufficient time to remove the excess solution and then transferred onto an assay plate. After incubation at 35° C. for 20 hours, the diameter of the observed inhibition zone was measured and compared with standard solutions of cephaloridine. The antimicrobial activity of the antibiotic PS-5 and related compounds is expressed as cephaloridine equivalent units/ml.
As well known to those skilled in the art, the assay standard curve varies to some extent, depending on the species of the test microorganisms. […]

## CC1(C)S[C@@H]2[C@H](NC(=O)[C@H](N)c3ccccc3)C(=O)N2[C@H]1C(=O)O [Ampicillin, ampicillin]
[1]
  MIC: 0.2 µg/mL (≈ 0.572 µM)
[2]
  MIC: 3.13 µg/mL (≈ 8.96 µM)
[3]
  MIC: 6.25 µg/mL (≈ 17.9 µM)
[4]
  MIC: 0.04 µg/mL (≈ 0.114 µM)
[5]
  MIC: > 100 µg/mL
[6]
  MIC: 50 µg/mL (≈ 143 µM)
[7]
  MIC: > 100 µg/mL
[8]
  MIC: 3.13 µg/mL (≈ 8.96 µM)
[9]
  MIC: 50 µg/mL (≈ 143 µM)
[10]
  MIC: > 100 µg/mL
[11]
  MIC: > 100 µg/mL
[12]
  MIC: 0.2 µg/mL (≈ 0.572 µM)
[13]
  MIC: 0.05 µg/mL (≈ 0.143 µM)
[14]
  MIC: > 100 µg/mL
[15]
  MIC: > 100 µg/mL
[16]
  MIC: 50 µg/mL (≈ 143 µM)
[17]
  MIC: 0.02 µg/mL (≈ 0.0572 µM)
[18]; P5, 18 h, reference antibiotic 625 μg/ml, read-out: Inhibition zone Without CER
  zone of inhibition at 625 µg/mL: 0 mm
[18]; P5, 18 h, reference antibiotic 2,500 μg/ml, read-out: Inhibition zone Without CER
  zone of inhibition at 2500 µg/mL: 0 mm
[18]; P5, 18 h, reference antibiotic 10,000 μg/ml, read-out: Inhibition zone Without CER
  zone of inhibition at 10000 µg/mL: 14.7 mm
[18]; disc assay, Table 10
  Potentiation of the antimicrobial activity of cephaloridine: could not increase the antimicrobial activity of cephaloridine
[18]; reference antibiotic 625 μg/ml
  Inhibition zone With CER: 0 mm
[18]; reference antibiotic 2,500 μg/ml
  Inhibition zone With CER: 0 mm
[18]; reference antibiotic 10,000 μg/ml
  Inhibition zone With CER: 12.9 mm

## CCC1C(=O)N2C(C(=O)O)=C(SCCNC(C)=O)CC12 (centres unmarked) [antibiotic PS-5 sodium salt]
[19]
  Deaths after intraperitoneal administration: No dead was recorded
[20]
  ED50: 2.45 mg/kg
[21]
  Solubility in acetone: substantially insoluble
  Solubility in water: Soluble
[22]
  Specific activity: 21,000 CCU/mg
